In the supplement of paper PMC8976852:
± gives the standard deviation of the averaged measurements.

What was measured:
Assay in all cases: activity (1 - area under the dose-response curve within the screened range) (fraction); higher = more sensitive
Conditions in all cases: treatment time: 72 h
[1] = test system: HCM-SANG-0532-C20 (colorectal cancer organoid)
Experimental: (§1)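 Patient-derived cancer organoids (colorectal and oesophageal, HCM-SANG models) were grown for up to 6 months in 5% or 80% ECM (BME-2), then seeded in 384-well plates on an ECM layer and treated with 72 compounds for 3 days. Each compound used a 7-point half-log dilution series spanning a 1000-fold range, in technical triplicate and biological duplicate. Dose-response curves were fitted with a non-linear mixed effects model; fits with RMSE > 0.3 were removed, and activity = 1 - AUC within the screened dose range (0 = no activity, 1 = maximum).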

[2] = test system: HCM-SANG-0266-C20 (colorectal cancer organoid)
Experimental: as §1

[3] = test system: HCM-SANG-0270-C20 (colorectal cancer organoid)
Experimental: as §1

[4] = test system: HCM-SANG-0291-C15 (oesophageal cancer organoid)
Experimental: as §1

[5] = ECM percentage in culture prior to screening 5 %
[6] = ECM percentage in culture prior to screening 80 %

Row | SMILES | activity [1, 5] | activity [1, 6] | activity [2, 5] | activity [2, 6] | activity [3, 5] | activity [3, 6] | activity [4, 5] | activity [4, 6]
1 | CS(=O)(=O)CCNCc1ccc(-c2ccc3ncnc(Nc4ccc(OCc5cccc(F)c5)c(Cl)c4)c3c2)o1 [Lapatinib] | 0.143 ± 0.069 | 0.205 ± 0.052 | 0.21 ± 0.071 | 0.132 ± 0.082 | 0.157 ± 0.057 | 0.106 ± 0.073 | 0.207 ± 0.045 | 0.189 ± 0.022
2 | Cn1ncc(Cl)c1-c1cc(C(=O)N[C@H](CN)Cc2ccc(F)c(F)c2)oc1Cl [Uprosertib] | 0.177 ± 0.14 | 0.159 ± 0.027 | 0.218 ± 0.089 | 0.183 ± 0.08 | 0.0769 ± 0.057 | 0.0584 ± 0.038 | 0.0195 ± 0.0032 | 0.0257 ± 0.018
3 | Cn1ncnc1[C@H]1c2n[nH]c(=O)c3cc(F)cc(c23)N[C@@H]1c1ccc(F)cc1 [Talazoparib] | 0.0688 ± 0.05 | 0.0443 ± 0.014 | 0.0908 ± 0.022 | 0.0937 ± 0.043 | 0.0426 ± 0.031 | 0.0374 ± 0.026 | 0.249 ± 0.036 | 0.275 ± 0.045
4 | CC(=O)Nc1cccc(-n2c(=O)n(C3CC3)c(=O)c3c(Nc4ccc(I)cc4F)n(C)c(=O)c(C)c32)c1 [Trametinib] | 0.114 ± 0.065 | 0.146 ± 0.024 | 0.207 ± 0.078 | 0.0946 ± 0.067 | 0.0906 ± 0.051 | 0.0586 ± 0.043 | 0.1 ± 0.019 | 0.0654 ± 0.02
5 | NC1(c2ccc(-c3nc4ccn5c(=O)[nH]nc5c4cc3-c3ccccc3)cc2)CCC1 [MK-2206] | 0.158 ± 0.11 | 0.168 ± 0.034 | 0.223 ± 0.074 | 0.152 ± 0.095 | 0.076 ± 0.014 | 0.0487 ± 0.04 | 0.086 ± 0.048 | 0.0594 ± 0.025
6 | O=C(Nc1ccc2[nH]nc(-c3ccncc3)c2c1)[C@@H]1CCN(CC(=O)N2CCN(c3ccc(-c4ncccn4)cc3)CC2)C1 | 0.201 ± 0.13 | 0.272 ± 0.056 | 0.388 ± 0.086 | 0.155 ± 0.12 | 0.159 ± 0.078 | 0.0818 ± 0.065 | 0.236 ± 0.027 | 0.224 ± 0.055
7 | COc1cccc2cc(-c3nc([C@H]4CC[C@H](C(=O)O)CC4)n4ncnc(N)c34)[nH]c12 [OSI-027] | 0.0577 ± 0.024 | 0.0906 ± 0.013 | 0.141 ± 0.054 | 0.0937 ± 0.059 | 0.0587 ± 0.034 | 0.0504 ± 0.036 | 0.0395 ± 0.012 | 0.032 ± 0.014
8 | CC(=O)O[C@H]1C(=O)[C@@]2(C)[C@H]([C@H](OC(=O)c3ccccc3)[C@]3(O)C[C@H](OC(=O)[C@H](O)[C@@H](NC(=O)c4ccccc4)c4ccccc4)C(C)=C1C3(C)C)[C@]1(OC(C)=O)CO[C@@H]1C[C@@H]2O [Paclitaxel] | 0.138 ± 0.058 | 0.256 ± 0.031 | 0.331 ± 0.06 | 0.317 ± 0.067 | 0.223 ± 0.051 | 0.218 ± 0.084 | 0.246 ± 0.044 | 0.27 ± 0.066
9 | CN(C)C(=O)c1cc2cnc(Nc3ccc(N4CCNCC4)cn3)nc2n1C1CCCC1 [Ribociclib] | 0.0436 ± 0.036 | 0.0301 ± 0.0069 | 0.0335 ± 0.011 | 0.0512 ± 0.053 | 0.046 ± 0.028 | 0.0291 ± 0.019 | 0.0289 ± 0.0084 | 0.0323 ± 0.016
10 | O=C(O)C1(C(=O)O)CCC1.[NH2-].[NH2-].[Pt+2] [Carboplatin] | 0.0573 ± 0.015 | 0.0352 ± 0.013 | 0.0268 ± 0.0076 | 0.0392 ± 0.024 | 0.0338 ± 0.02 | 0.0325 ± 0.013 | 0.0362 ± 0.017 | 0.0271 ± 0.011
11 | Cc1cc([C@@H](C)Nc2ccccc2C(=O)O)c2nc(N3CCOCC3)cc(=O)n2c1 [AZD6482] | 0.0367 ± 0.021 | 0.0291 ± 0.011 | 0.042 ± 0.03 | 0.0421 ± 0.017 | 0.0274 ± 0.021 | 0.0245 ± 0.008 | 0.0199 ± 0.0028 | 0.0269 ± 0.0093
12 | C[C@]12CC[C@@H]3c4ccc(O)cc4C[C@@H](CCCCCCCCC[S+]([O-])CCCC(F)(F)C(F)(F)F)[C@H]3[C@@H]1CC[C@@H]2O (some centres not stated) [Fulvestrant] | 0.022 ± 0.0021 | 0.0273 ± 0.0072 | 0.0414 ± 0.019 | 0.0246 ± 0.0074 | 0.0292 ± 0.0081 | 0.0268 ± 0.015 | 0.0285 ± 0.013 | 0.0212 ± 0.0031
13 | COc1ccc(-c2ccc3c(N4CCOC[C@@H]4C)nc(N4CCOC[C@@H]4C)nc3n2)cc1CO [AZD8055] | 0.237 ± 0.076 | 0.301 ± 0.039 | 0.298 ± 0.097 | 0.251 ± 0.12 | 0.117 ± 0.043 | 0.0699 ± 0.062 | 0.076 ± 0.03 | 0.0634 ± 0.032
14 | COc1cc2c(Nc3ccc(NC(=O)c4ccccc4)cc3)ncnc2cc1OCCCN1CCOCC1 | 0.184 ± 0.07 | 0.166 ± 0.022 | 0.228 ± 0.027 | 0.212 ± 0.038 | 0.102 ± 0.054 | 0.106 ± 0.06 | 0.0708 ± 0.031 | 0.0657 ± 0.034
15 | CC(=O)c1c(C)c2cnc(Nc3ccc(N4CCNCC4)cn3)nc2n(C2CCCC2)c1=O [Palbociclib] | 0.0593 ± 0.019 | 0.102 ± 0.034 | 0.0791 ± 0.052 | 0.0779 ± 0.05 | 0.0934 ± 0.03 | 0.0559 ± 0.031 | 0.0779 ± 0.033 | 0.0409 ± 0.013
16 | CC[C@@]1(O)C(=O)OCc2c1cc1n(c2=O)Cc2cc3ccccc3nc2-1 [Camptothecin] | 0.106 ± 0.034 | 0.156 ± 0.023 | 0.169 ± 0.031 | 0.147 ± 0.071 | 0.133 ± 0.028 | 0.0946 ± 0.022 | 0.262 ± 0.021 | 0.258 ± 0.022
17 | CCc1c2c(nc3ccc(OC(=O)N4CCC(N5CCCCC5)CC4)cc13)-c1cc3c(c(=O)n1C2)COC(=O)[C@]3(O)CC [Irinotecan] | 0.1 ± 0.035 | 0.0793 ± 0.037 | 0.0899 ± 0.035 | 0.0683 ± 0.022 | 0.0887 ± 0.063 | 0.079 ± 0.039 | 0.233 ± 0.019 | 0.18 ± 0.015
18 | CNC(=O)CN1CCC(Oc2cc3c(Nc4cccc(Cl)c4F)ncnc3cc2OC)CC1 [Sapitinib] | 0.119 ± 0.038 | 0.179 ± 0.043 | 0.255 ± 0.081 | 0.121 ± 0.1 | 0.236 ± 0.12 | 0.139 ± 0.12 | 0.207 ± 0.076 | 0.159 ± 0.025
19 | N.N.[Cl][Pt][Cl] [Cisplatin] | 0.0676 ± 0.035 | 0.0959 ± 0.02 | 0.0675 ± 0.021 | 0.08 ± 0.081 | 0.0701 ± 0.024 | 0.0677 ± 0.021 | 0.132 ± 0.023 | 0.151 ± 0.025
